The values that follow come from ChEMBL document CHEMBL1165863, “Lipophilicity of novel antitumour and analgesic active 8-aryl-2,6,7,8-tetrahydroimidazo[2,1-c][1,2,4]triazine-3,4-dione derivatives determined by reversed-phase HPLC and computational methods” (Eur J Med Chem, 2010).

Test system in the first series: not listed separately
Nature of the series: (§1) Toxicity in ip dosed mouse. The format is organism-based. To be noted: in vivo.
Take `O=c1[nH]nc2n(c1=O)CCN2c1cccc(Cl)c1`: the LD50 amounted to 2000 mg/kg.

The next series has as its system Mus musculus. The series is described as §1. The format is organism-based. The note with it: in vivo.
As for `Cc1ccc(N2CCn3c2n[nH]c(=O)c3=O)cc1`, the “log(1/LD50)” value is on record as -3.25.
The same measure, in the same setting: the figure for `COc1ccc(N2CCn3c2n[nH]c(=O)c3=O)cc1` is -3.18.
The same measure, in the same setting: to `O=c1[nH]nc2n(c1=O)CCN2c1cccc(Cl)c1` belongs -3.3.
In the case of `O=c1[nH]nc2n(c1=O)CCN2c1ccc(Cl)cc1`, the LD worked out at 2000 mg/kg and the “log(1/LD50)” value is listed as -3.3.
As to `O=c1[nH]nc2n(c1=O)CCN2c1ccccc1`, the “log(1/LD50)” value is given as -3.15.
Same read-out and setting: the figure for `COc1ccccc1N1CCn2c1n[nH]c(=O)c2=O` is -3.04.

Test system in another series: not listed separately
Nature of the series: Lipophilicity, Log p by HPLC. The format is physicochemical.
Settings: not given
As to `Cc1ccc(N2CCn3c2n[nH]c(=O)c3=O)cc1`, the logP is 1.84.
As to `COc1ccc(N2CCn3c2n[nH]c(=O)c3=O)cc1`, the logP was determined as 1.21.
On the same count and under the same terms, to `O=c1[nH]nc2n(c1=O)CCN2c1cccc(Cl)c1` belongs 2.
The same measure, in the same setting: the figure for `O=c1[nH]nc2n(c1=O)CCN2c1ccc(Cl)c(Cl)c1` is 2.63; for `O=c1[nH]nc2n(c1=O)CCN2c1ccc(Cl)cc1` it is 1.99.
As for `O=c1[nH]nc2n(c1=O)CCN2c1ccccc1`, the logP was determined as 1.31.
The same measure, in the same setting: to `COc1ccccc1N1CCn2c1n[nH]c(=O)c2=O` belongs 0.97; to `Cc1ccccc1N1CCn2c1n[nH]c(=O)c2=O`, 1.16.

Usually LD50 stands for the dose expected to kill half of the subjects tested. A higher LD50 goes with lower toxicity. One may read the logP as a log measure of how a compound divides between an organic and an aqueous phase. A high value points to a more lipophilic compound.
